Assay results reported in patent publication US12281301B2, “Sequencing-based proteomics” (THE BROAD INSTITUTE, INC., priority 2018, dated 2025).

Test system: THP-1 monocytes
Assay: PATTERNS protein quantification in tagged THP-1 monocyte library
Format: cell-based, human
Conditions: 6 hours treatment; out of 400 proteins represented; including FOS and EGR1
Method: RNP-mediated gene tagging in other cell lines. Non-confluent cells were trypsinized and/or washed and adjusted to a density 2E7/ml in warm OptiMEM. 125 μl of cell suspension were mixed with 125 μl OptiMEM containing 2.5 μg donor DNA, 2.5 μg Cas9 protein, and 250 ng sgRNA. The mix was incubated for 15 minutes at room temperature, and transferred to a 4 mm electroporation cuvette (BioRad). Cells were electroporated on a Gene Pulser Xcell Electroporation System (BioRad) using the following settings: 265V, 975 μF, and 720 Ohm. Cells were recovered immediately in 5 ml of pre-warmed growth medium. For library generation in THP-1 and SKMEL28 cells, the above protocol was scaled up 10-fold.
FACS sorting. […]
Analysis of Silent Barcode Sequencing data. Silent barcode bases were extracted from raw sequencing reads and were converted to a 28-bit integer value. Using a barcode lookup table, reads were collapsed into target loci, and a matrix of screening conditions vs. sorted bins was incremented for every successfully mapped read. Total read counts in every position of the matrix were normalized by the ratio of sorted cells (from control sort for simplification) divided by total reads with correctly mapped 10 bp reverse primer sequence, which helped to even out PCR saturation artifacts. […] All data were analyzed using a custom JavaScript-based analysis tool that is available online.

CCCCCCCCCCCCCC(=O)O[C@@H]1[C@@H](C)[C@@]2(O)[C@@H](C=C(CO)C[C@]3(O)C(=O)C(C)=C[C@@H]23)[C@@H]2C(C)(C)[C@]12OC(C)=O [PMA, Phorbol 12-Myristate 13-Acetate]
proteins whose levels were altered, by PATTERNS: four proteins
